The nature of data set [1]: Evaluation of cool feeling intensity (EC50, with reference to NPL 6). Type of data set: cell-based. The settings on record: index of the cool feeling intensity; read-out: EC50 (concentration at which a cool feeling is felt). How it is done:
The measurement of the cool feeling intensity was performed with reference to NPL 6. A concentration EC50 at which a cool feeling is felt is shown below as the index of the cool feeling intensity.

Data set [2] can be described thus: Sensory evaluation of aqueous solutions against comparative compounds. As to conditions: for course / persistence of cool feeling intensity / start of cool feeling / taste and accompanying sensations (umami, salty, bitterness, numbness, fiery feeling): vs Comparative Compound 3; for cool feeling characteristic: rac-14a-38 vs Comparative Compound 1 (Evercool 180). The format is in vivo. How it is done: Sensory Evaluation was performed by comparison with Comparative Compound 1 (Evercool 180), which has a strong cool feeling among conventionally known compounds, and has a similar structure. Each of Exemplary Compound rac-14a-38 and Comparative Compound 1 was prepared as a 2 ppm aqueous solution, and the evaluation was performed.
Sensory Evaluation was performed by comparison with Comparative Compound 2, which is conventionally known, and has a similar structure. Each of Exemplary Compound rac-14a-23 and Comparative Compound 2 was prepared as a 30 ppm aqueous solution, and the evaluation was performed.
Sensory Evaluation was performed by comparison with Comparative Compound 3, which is conventionally known, and has a similar structure. Each of Exemplary Compound rac-14a-34 and Comparative Compound 3 was prepared as a 30 ppm aqueous solution, and the evaluation was performed.
Sensory Evaluation was performed by comparison with Comparative Compound 3, which is conventionally known, and has a similar structure. Each of Exemplary Compound rac-14a-40 and Comparative Compound 3 was prepared as a 30 ppm aqueous solution, and the evaluation was performed.
Sensory Evaluation was performed by comparison with Comparative Compound 3 which is conventionally known. Each of Exemplary Compound rac-14a-46 and Comparative Compound 3 was prepared as a 30 ppm aqueous solution, and the evaluation was performed.
Sensory Evaluation was performed by comparison with Comparative Compound 3 which is conventionally known. Each of Exemplary Compound rac-14a-41 and Comparative Compound 3 was prepared as a 30 ppm aqueous solution, and the evaluation was performed.
Sensory Evaluation was performed by comparison with Comparative Compound 3 which is conventionally known. Each of Exemplary Compound rac-14a-47 and Comparative Compound 3 was prepared as a 30 ppm aqueous solution, and the evaluation was performed.

[3] abbreviates: 30 ppm aqueous solution, vs Comparative Compound 2.

“Also recorded” adds a separate entry of the source.

For the molecule `CC(C)[C@H]1CCC(C)(C)C[C@@H]1OC(=O)[C@H](C)O` [(1S,2R)-17a-2, (S)-((1S,2R)-2-isopropyl-5,5-dimethylcyclohexyl)2-hydroxypropanoate], the EC50 in data set [1] came out at 24500 nM.
`CC(C)[C@@H]1CCC(C)(C)C[C@H]1C(=O)Nc1ccc(CC#N)cc1` [14a-38i, (−)-trans-N-(4-(cyanomethyl)phenyl)-2-isopropyl-5,5-dimethylcyclohexanecarboxamide]: the EC50 in data set [1] turned out to be 140 nM.
On to `COc1ccc(NC(=O)C2CC(C)(C)CCC2C(C)C)cc1` (racemic) [rac-14a-34, 2-isopropyl-N-(4-methoxyphenyl)-5,5-dimethylcyclohexanecarboxamide], for which the melting point (in general, the temperature, or range, at which the solid turns liquid) was in the range of 115 to 118 °C. For the same molecule, the EC50 in data set [1] worked out at 55 nM. In data set [2] (30 ppm aqueous solution), the “course / persistence of cool feeling intensity” value (from here on “course / persistence”) was “increased over time”; the “start of cool feeling” value is recorded as “later than Comparative Compound 3”; the “taste and accompanying sensations (umami, salty, bitterness, numbness, fiery feeling)” value (from here on “taste and accompanying sensations”) was “comparable to that of Comparative Compound 3; also recorded: the secretion of saliva continued”.
In the case of `CC(C)[C@@H]1CCC(C)(C)C[C@H]1OC(=O)[C@H](C)O` [(1R,2S)-17a-2, (S)-((1R,2S)-2-isopropyl-5,5-dimethylcyclohexyl)2-hydroxypropanoate], the EC50 in data set [1] came out at 78500 nM.
Take `COC(=O)c1ccc(NC(=O)C2CC(C)(C)CCC2C(C)C)c(C)c1` (racemic) [rac-14a-46, methyl 4-(2-isopropyl-5,5-dimethylcyclohexanecarboxamide)-3-methylbenzoate]: the EC50 in data set [1] amounted to 1500 nM. In data set [2] (30 ppm aqueous solution), the “course / persistence” value is reported as “the cool feeling intensity persisted”; the “start of cool feeling” value is reported as “the start was late”; the “taste and accompanying sensations” value is “clear and light touch characteristic of an ester”.
In the case of `COC(=O)c1cccc(NC(=O)C2CC(C)(C)CCC2C(C)C)c1` (racemic) [rac-14a-44, methyl 3-(2-isopropyl-5,5-dimethylcyclohexanecarboxamide) benzoate], in data set [1], the EC50 came to 5240 nM.
Turning to `CC(C)[C@@H]1CC[C@@H](C)C[C@H]1C(=O)Nc1ccc(CC#N)cc1` [Evercool 180, reference compound], the cool feeling characteristic result in data set [2] (2 ppm aqueous solution) was “menthol-like characteristic”.
Turning to `COc1ccc(NC(=O)C2CC(C)(C)CCC2C(C)C)cc1O` (racemic) [rac-14a-41, N-(3-hydroxy-4-methoxyphenyl)-2-isopropyl-5,5-dimethylcyclohexanecarboxamide], the melting point was in the range of 93 to 98 °C. The EC50 in data set [1] is 27 nM. In data set [2] (30 ppm aqueous solution), the “course / persistence” value is recorded as “also has persistence”; the “start of cool feeling” value is “slightly earlier than Comparative Compound 3”; the “taste and accompanying sensations” value was “Chemical-like bitterness was somewhat felt as a first taste; also recorded: accompanied by a clear feeling than a fiery feeling”.
`CC(C)C1CCC(C)(C)CC1C(=O)Nc1ccc(CC#N)cc1` (racemic) [rac-14a-38, N-(4-(cyanomethyl)phenyl)-2-isopropyl-5,5-dimethylcyclohexanecarboxamide] came in with a melting point of 121 to 122 °C. Besides, in data set [1], the EC50 turned out to be 240 nM. Besides, in data set [2] (2 ppm aqueous solution), the “lapse until cool feeling exhibited after put in the mouth” value is given as 1 minute to several minutes, the “persistence of cool feeling” value was no less than 30 min and the cool feeling characteristic result is recorded as “more natural than that of Comparative Compound 1; also recorded: only a cool feeling was felt; also recorded: sharper than that of Comparative Compound 1”.
`COC(=O)c1ccc(NC(=O)C2CC(C)(C)CCC2C(C)C)cc1` (racemic) [rac-14a-45, methyl 4-(2-isopropyl-5,5-dimethylcyclohexanecarboxamide) benzoate]: the EC50 in data set [1] stood at 3530 nM.
As for `CC(C)[C@@H]1CCC(C)(C)C[C@H]1OC(=O)[C@H](C)O` (racemic) [rac-17a-2, (S)-(trans-2-isopropyl-5,5-dimethylcyclohexyl)2-hydroxypropanoate], the EC50 in data set [1] stood at 64700 nM.
For `CCOC(=O)CNC(=O)C1CC(C)(C)CCC1C(C)C` (racemic) [rac-14a-23, ethyl 2-(2-isopropyl-5,5-dimethylcyclohexanecarboxamide) acetate], the melting point lay within 104 to 107 °C. Besides, the EC50 in data set [1] stood at 490 nM. Further, in data set [2] (setting [3]), the “cool feeling intensity peak” value was “comparable to that of Comparative Compound 2”, the “exhibition of a cool feeling (start)” value is “later than Comparative Compound 2”, the “persistence of cool feeling” value is “superior to that of Comparative Compound 2” and the “sharp cool feeling stimulation” value was “stronger than that in Comparative Compound 2”.
Turning to `CC(C)C1CCC(C)(C)CC1C(=O)Nc1ccc(CO)cc1` (racemic) [rac-14a-47, N-(4-(hydroxymethyl)phenyl)-2-isopropyl-5,5-dimethylcyclohexanecarboxamide], the melting point was 165 to 172 °C. In data set [1], the EC50 is 48 nM. In addition, in data set [2] (30 ppm aqueous solution), the “course / persistence” value is on record as “also has persistence”; the “start of cool feeling” value was “early start of a cool feeling”; the “taste and accompanying sensations” value is given as “stronger umami was felt than that in Comparative Compound 3; also recorded: accompanied by a fiery feeling (burning feeling)”.
Consider `CCNC(=O)C1CC(C)(C)CCC1C(C)C` (racemic) [rac-14a-2, N-ethyl-2-isopropyl-5,5-dimethylcyclohexanecarboxamide], for which the melting point was 101 to 105 °C. For the same molecule, the EC50 in data set [1] was 2270 nM.
For `CC(C)C1CCC(C)(C)CC1C(N)=O` (stereo not shown) [14a-50, 2-isopropyl-5,5-dimethylcyclohexanecarboxamide], in that order: 141 to 145 °C and 15500 nM.
As to `COc1ccc(NC(=O)C2CC(C)(C)CCC2C(C)C)c(C)c1` (racemic) [rac-14a-40, 2-isopropyl-N-(4-methoxy-2-methylphenyl)-5,5-dimethylcyclohexanecarboxamide], the EC50 in data set [1] came to 79 nM. Moreover, in data set [2] (30 ppm aqueous solution), the “taste and accompanying sensations” value was “stronger and shaper than those of Comparative Compound 3; also recorded: Umami and a numbness feeling were exhibited simultaneously”.
As for `CC(C)C1CCC(C)(C)CC12OCC(CO)O2` (racemic) [(1R,2S)-19a-1, (6-isopropyl-9,9-dimethyl-1,4-dioxaspiro[4.5]decan-2-yl)methanol], the EC50 in data set [1] turned out to be 32400 nM.
Consider `CC(C)C1CCC(C)(C)CC1C(=O)NCCc1ccccn1` (racemic) [rac-14a-16, 2-isopropyl-5,5-dimethyl-N-(2-(pyridin-2-yl)ethyl)cyclohexanecarboxamide], for which the melting point lay in the range of 104 to 107 °C. Moreover, the EC50 in data set [1] was determined as 130 nM.

Source of the values: patent US20180057447A1, “METHYL MENTHOL DERIVATIVE AND COOLING AGENT COMPOSITION CONTAINING SAME” (TAKASAGO INTERNATIONAL CORPORATION, priority 2015, published 2018).
